Data published in ChEMBL document CHEMBL1201862, “PubChem BioAssay data set” (2004).
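Exposure lasted 48 hours, with cells grown in 96-well plates and compounds tested at five concentrations. GI50 = concentration required for 50% inhibition of growth.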 Activity calls are given as the source filed them. Rule as the data show it: active = GI50 up to about 1.1 µM and inactive = higher.

Legend:
Assay in all cases: NCI-60 cell line screen, 48 h
[1] = tested on: MCF7
[2] = tested on: HL-60
[3] = tested on: COLO 205
[4] = tested on: HCC 2998
[5] = tested on: SF-295
[6] = tested on: LXFL 529
[7] = tested on: SK-MEL-2
[8] = tested on: UACC-62
[9] = tested on: MDA-MB-231
[10] = tested on: Malme-3M
[11] = tested on: EKVX
[12] = tested on: DMS-273
[13] = tested on: PC-3
[14] = tested on: IGROV-1
[15] = tested on: A549
[16] = tested on: LOX IMVI
[17] = tested on: M14
[18] = tested on: SNB-75
[19] = tested on: SNB-19
[20] = tested on: MDA-N

Measured: GI50

O=C1C(c2ccc([N+](=O)[O-])cc2)=C(Cl)C(=O)c2c(O)cccc21
inactive: [1] 18.8 µM | [2] 4.12 µM | [3] 17.3 µM | [4] 52.6 µM | [5] > 54.1 µM | [6] 9.51 µM | [7] 17.9 µM | [8] 19.7 µM | [9] 17.1 µM | [10] 19.6 µM | [11] 20.5 µM | [12] 28 µM | [13] 26.1 µM | [14] 26.4 µM | [15] 97.7 µM | [16] 17.3 µM | [17] 21 µM | [18] 35.3 µM | [19] 22.5 µM | [20] 20.2 µM
